Entries after “also recorded” stand apart in the source; their conditions may differ.
Tests used:
Format in all cases: in vivo, mouse (C57BL/6J male, 60% HFD DIO)
[1] = Example 2: lean mass by MRI on day 23
Excerpt: (§1) After 5-6-week-old C57BL/6J male mice were acclimatized for 1 week, the weight of each mouse was weighed, and the mice were randomly divided into a control group and a model group by taking the weight as a main index, where 12 mice in the control group were fed with common feed (CD), and the mice in the remaining model group were fed with 60% high-fat feed (60% HFD) for 10-12 weeks to construct a DIO obesity model, with the average body weight being not less than 40 g. The mice fed with 60% HFD were grabbed and acclimatized with a solvent for 3 days, where the acclimatization with a solvent was performed by oral gavage of 0.5% CMC-Na, once daily.
(§2) The food intake, the body weight, the body fat ratio, and the insulin level of the mice were respectively measured, followed by fasting blood glucose level, and the mice were randomly grouped according to Table 12 by taking the body weight as an index, and the remaining ungrouped mice were euthanized. After grouping, each group of mice was administered according to Table 12, the day of administration was defined as DO, and the administration volume of each drug was determined based on the results obtained by the calculation of 5 μL/g× mouse body weight (g).
(§3) For the combined administration group, the administration sequence and the administration time were kept consistent at each administration. The mice were continuously fed with high-fat feed during the administration period until the administration was finished. During administration, 1 food intake was measured per week (difference in feed weights at an interval of 24 h was measured); each group of mice was weighed once daily; blood was collected from the tail tip on day 16 and day 30, respectively, so as to measure fasting blood glucose levels once (blood was collected after fasting from 9:00 am to 3:[…]); on day 24 of administration (D23), the body fat ratio and the lean mass of each group of mice were measured by MRI (the measurement period was kept consistent with that before grouping); after 25 days of administration intervention (day 24), each group of mice was fasted for 6 h and subjected to OGTT (0 min, 15 min, 30 min, 60 min, 90 min, 120 min) to detect their blood glucose levels; after 29 days of administration intervention (day 28), each group of mice was fasted for 6 h and subjected to OGTT (0 min, 15 min, 30 min, 60 min, 90 min, 120 min), and meanwhile subjected to blood sampling via submaxillary vein (0 min, 15 min, 30 min, about 30 μL of blood sampled each time), and then the blood plasma was separated for detecting the insulin level by ELISA, where the separated blood plasma was more than 10 μL; the next day (D30) at the end of administration was set as the test endpoint, and the mice were fasted for 6 h in the morning and subjected to fasting blood glucose level measurement; subsequently, the mice were euthanized with CO2, blood was collected from the heart of each mouse for analysis, and each group of mice was dissected; the liver and subcutaneous, epididymal and mesenteric fat was collected, photographed and weighed, respectively.
The body weight, the lean mass and the lean ratio of each animal in groups G1 to G8 were measured on day 23 and averaged for each group, and the results are shown in Table 16 below, and FIGS. 23 and 24.

[2] = Example 2: body weight and body weight change rate, combined administration of HTD1801 and dapagliflozin or empagliflozin in DIO obesity model; details: HTD1801 250 mpk, dapagliflozin 10 mpk, empagliflozin 15 mpk p.o. QD, semaglutide 10 nmol/kg s.c. Q3D
Excerpt: as §1, §2, §3

[3] = Example 2: body fat mass by MRI on day 23
Excerpt: as §1, §2, §3
The body weight, the body fat mass and the body fat ratio of each animal in groups G1 to G8 were measured on day 23 and averaged for each group, and the results are shown in Table 15 below, and FIGS. 21 and 22.

[4] = mean, day 23, HTD1801 250 mpk, dapagliflozin 10 mpk, empagliflozin 15 mpk p.o. QD

OC[C@H]1O[C@@H](c2ccc(Cl)c(Cc3ccc(O[C@H]4CCOC4)cc3)c2)[C@H](O)[C@@H](O)[C@@H]1O [Empagliflozin, empagliflozin]
lean ratio (in words) ([1]; day 23, relative to model control group G2): slightly decreased
Body weight ([1]; mean, day 23 (Table 16), HTD1801 250 mpk, dapagliflozin 10 mpk, empagliflozin 15 mpk p.o. QD): 46.8 g
Lean (lean mass) [1, 4]: 4.2 g
Lean ratio [1, 4]: 9.1%
body weight change / weight loss effect (in words) [2]: basically kept unchanged; also recorded: could not achieve the weight loss effect
Body weight (mean) ([2]; day 0 (baseline)): 46.2 g
Body weight change rate ([2]; day 0 (baseline)): 0.0%
Body weight (mean) ([2]; day 1): 46.3 g
Body weight change rate ([2]; day 1): 0.4%
Body weight (mean) ([2]; day 2): 46.1 g
Body weight change rate ([2]; day 2): −0.2%
Body weight (mean) ([2]; day 3): 46.0 g
Body weight change rate ([2]; day 3): −0.3%
Body weight (mean) ([2]; day 4): 46.0 g
Body weight change rate ([2]; day 4): −0.5%
Body weight (mean) ([2]; day 5): 45.6 g
Body weight change rate ([2]; day 5): −1.3%
Body weight (mean) ([2]; day 6): 45.8 g
Body weight change rate ([2]; day 6): −0.8%
Body weight (mean) ([2]; day 7): 46.0 g
Body weight change rate ([2]; day 7): −0.4%
Body weight (mean) ([2]; day 8): 45.6 g
Body weight change rate ([2]; day 8): −1.2%
Body weight (mean) ([2]; day 9): 45.5 g
Body weight change rate ([2]; day 9): −1.5%
Body weight (mean) ([2]; day 10): 45.4 g
Body weight change rate ([2]; day 10): −1.7%
Body weight (mean) ([2]; day 11): 45.6 g
Body weight change rate ([2]; day 11): −1.2%
Body weight (mean) ([2]; day 12): 45.5 g
Body weight change rate ([2]; day 12): −1.6%
Body weight (mean) ([2]; day 13): 45.3 g
Body weight change rate ([2]; day 13): −1.9%
Body weight (mean) ([2]; day 14): 45.6 g
Body weight change rate ([2]; day 14): −1.3%
Body weight (mean) ([2]; day 15): 45.6 g
Body weight change rate ([2]; day 15): −1.4%
Body weight (mean) ([2]; day 16): 45.3 g
Body weight change rate ([2]; day 16): −1.9%
Body weight (mean) ([2]; day 17): 45.7 g
Body weight change rate ([2]; day 17): −1.1%
Body weight (mean) ([2]; day 18): 45.7 g
Body weight change rate ([2]; day 18): −1.0%
Body weight (mean) ([2]; day 19): 45.7 g
Body weight change rate ([2]; day 19): −1.2%
Body weight (mean) ([2]; day 20): 45.8 g
Body weight change rate ([2]; day 20): −0.8%
Body weight (mean) ([2]; day 21): 46.0 g
Body weight change rate ([2]; day 21): −0.4%
Body weight (mean) ([2]; day 22): 46.2 g
Body weight change rate ([2]; day 22): −0.1%
Body weight (mean) ([2]; day 23): 46.1 g
Body weight change rate ([2]; day 23): −0.1%
Body weight (mean) ([2]; day 24): 45.7 g
Body weight change rate ([2]; day 24): −1.1%
Body weight (mean) ([2]; day 25): 46.0 g
Body weight change rate ([2]; day 25): −0.4%
Body weight (mean) ([2]; day 26): 46.6 g
Body weight change rate ([2]; day 26): 0.9%
Body weight (mean) ([2]; day 27): 46.5 g
Body weight change rate ([2]; day 27): 0.7%
Body weight (mean) ([2]; day 28): 46.0 g
Body weight change rate ([2]; day 28): −0.4%
Body weight (mean) ([2]; day 29): 46.5 g
Body weight change rate ([2]; day 29): 0.8%
body fat mass and body fat ratio (in words) ([3]; day 23, relative to control group G2): increased
Body weight ([3]; mean, day 23 (Table 15), HTD1801 250 mpk, dapagliflozin 10 mpk, empagliflozin 15 mpk p.o. QD): 46.8 g
Body fat ratio [3, 4]: 49.3%
Fat (body fat mass) [3, 4]: 23.0 g

Reference: patent US20260373165A1, “PHARMACEUTICAL COMBINATIONS AND COMPOSITIONS, AND METHODS OF USE THEREOF” (SHENZHEN HIGHTIDE BIOPHARMACEUTICAL LTD., priority 2022, published 2026)
